Data reported in patent publication US10662204B2 (PFIZER INC., priority 2018, dated 2020).

What was measured:
[1] = biological target: T1, KRAS G12C (Homo sapiens, UniProt P01116, G12C); assay: Cell Activity Assay: accumulation of GDP-bound KRAS G12C in MIAPaCa-2 cells (Raf-1 RBD capture, MSD readout); format: cell-based; design: endogenous in cells; host or cells: MIAPaCa-2; settings: 6 hours, assay limit is 30.00
In short: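 MIAPaCa-2 cells exposed 6 h at 37 °C to 3-fold compound dilutions (0.3% DMSO final), then lysed. Active GTP-KRAS captured on Raf-1 RBD-coated plates, detected with anti-pan-Ras and SULFO-TAG secondary by MSD electrochemiluminescence. Signal normalized to DMSO and maximum inhibition; IC50 from 4-parameter fit.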

[2] = biological target: T2, GDP-loaded KRAS (1-169) G12C, C51S, C80L, C118S (Homo sapiens, UniProt P01116, C118S/C51S/C80L/G12C); assay: Mass Spectrometry Reactivity Assay (MSRA): covalent adduct of compound and KRAS G12C, Percent Modification; format: binding; settings: for MSRA (% modification) 10 μM 0.25 hr / MSRA (% modification) 10 μM 0.50 hr: 10 μM compound; for MSRA (% modification) 5.0 μM 0.017 hr / MSRA (% modification) 5.0 μM 0.25 hr: 5.0 μM compound
T2 construct: GDP-loaded KRAS (1-169) G12C, C51S, C80L, C118S
In short: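 GDP-loaded KRAS(1-169) G12C/C51S/C80L/C118S at 5 μM in 25 mM Hepes pH 7.5, 200 mM NaCl, 5% glycerol incubated at RT with compound (typically 5 or 10 μM final, 1% DMSO). Quenched in formic acid at 1-60 min; intact-protein LC-TOF MS gives % modification = modified/(modified+unmodified).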

[3] = biological target: T1, KRAS G12C; assay: Cell Activity Assay: IC50 in H358 cells; format: cell-based; design: endogenous in cells
Experimental: Compounds presented in the present invention lead to the accumulation of the GDP bound Ras upon treatment of human cancer cell line.
The accumulation of the GDP-bound KRAS G12C in cellular environment was measured based on the principle that KRAS G12C only binds to its downstream kinase; Raf-1 (MAP Kinase Kinase Kinase), when in its active-GTP bound state. In this state, Ras binded to a domain of Raf-1 kinase referred to as the Ras Binding Domain (RBD).
Raf-1 RBD (LJIC-1988A1) was diluted to 100 ng/well in PBS and 5 μl/well was spot coated onto MSD high bind SECTOR plates (L15XB). Plates were incubated at room temperature for 1 hour on an orbital shaker. Plates were washed with PBS/0.05% Tween-20 and 50 μl/well of thawed lysate samples were added, followed by 50 μl of 1% MSD Blocker A in PBS/0.05 Tween-20 (R93BA). Plates were incubated for 1 hour on an orbital shaker and washed with PBS/0.05% Tween-20. 25 μl/well of Anti-pan-Ras Antibody (Cell Biolabs 244003) diluted 1:3000 was added in 1% MSD Blocker A solution and plates were incubated for 1 hour on an orbital shaker and washed with PBS/0.05% Tween-20. SULFO-TAG goat anti-mouse secondary antibody (MSD R32AC) was diluted 1:500 in MSD Blocker A solution and added at 25 μL/well. Plates were incubated for 1 hour on an orbital shaker and washed with PBS/0.05% Tween-20. 150 μl/well of Read Buffer T (MSD R92TC) diluted 1:3 in H2O was added and plates were read on a Meso Scale Discovery Sector Imager S600.
KRAS signal was normalized to maximum inhibition and DMSO control values, and IC50 values were generated using a 4 parameter fit of the dose response curve. The decrease in IC50 reflects that the exemplary compound lead to a higher level of accumulation of GDP-bound KRAS G12C than another exemplary compounds at specific timepoint of treatment of cancer cell line.

SMILES	IC50 [1] [µM]	MSRA (% modification) 10 μM 0.25 hr [2] [%]	IC50 [3] [µM]	MSRA (% modification) 5.0 μM 0.017 hr [2] [%]	MSRA (% modification) 5.0 μM 0.25 hr [2] [%]	MSRA (% modification) 10 μM 0.50 hr [2] [%]
C=CC(=O)N1CCN(c2nc(OC[C@@H]3CN(C)C[C@H]3OC)nc3c(Oc4c(Cl)c(F)cc5[nH]ncc45)nc(Cl)cc23)CC1 [Example 19G, 1-[4-(6-chloro-8-[(5-chloro-6-fluoro-1H-indazol-4-yl)oxy]-2-{[(3S,4S)-4-methoxy-1-methylpyrrolidin-3-yl]methoxy}pyrido[3,4-d]pyrimidin-4-yl)piperazin-1-yl]prop-2-en-1-one]	0.051	60	0.109	–	–	–
C=CC(=O)N1CCN(c2nc(OC[C@@H]3C[C@H](OC)CN3C)nc3c(Oc4c(Cl)c(F)cc5[nH]ncc45)nc(Cl)cc23)CC1 [Example 20G, 1-[4-(6-chloro-8-[(5-chloro-6-fluoro-1H-indazol-4-yl)oxy]-2-{[(2S,4S)-4-methoxy-1-methylpyrrolidin-2-yl]methoxy}pyrido[3,4-d]pyrimidin-4-yl)piperazin-1-yl]prop-2-en-1-one]	0.08	79	0.152	26	–	–
C=CC(=O)N1CCN(c2nc(OC[C@@H]3CCCN3C)nc3c(Oc4c(C)ccc5[nH]ncc45)cccc23)CC1 [Example 07E, 1-[4-(8-[(5-methyl-1H-indazol-4-yl)oxy]-2-{[(2S)-1-methylpyrrolidin-2-yl]methoxy}quinazolin-4-yl)piperazin-1-yl]prop-2-en-1-one]	0.23	79	0.501	–	67	82
C=CC(=O)N1CCN(c2ncnc3c(Oc4c(Cl)c(C)cc5[nH]ncc45)nccc23)CC1 [Example 11A, 1-(4-{8-[(5-chloro-6-methyl-1H-indazol-4-yl)oxy]pyrido[3,4-d]pyrimidin-4-yl}piperazin-1-yl)prop-2-en-1-one]	0.892	44	2.56	–	–	68
C=CC(=O)N1CCN(c2nc(OCC3CCCO3)nc3c(Oc4c(Cl)c(F)cc5[nH]ncc45)nc(Cl)cc23)CC1 (stereo not drawn) [Example 11G, 1-(4-{6-chloro-8-[(5-chloro-6-fluoro-1H-indazol-4-yl)oxy]-2-(tetrahydrofuran-2-ylmethoxy)pyrido[3,4-d]pyrimidin-4-yl}piperazin-1-yl)prop-2-en-1-one]	0.102	77	0.448	–	–	–
C=CC(=O)N1CCN(c2ncnc3c(Oc4c(Cl)c(F)cc5[nH]ncc45)nc(Cl)cc23)CC1 [Example 20A, 1-(4-{6-chloro-8-[(5-chloro-6-fluoro-1H-indazol-4-yl)oxy]pyrido[3,4-d]pyrimidin-4-yl}piperazin-1-yl)prop-2-en-1-one]	0.255	73	0.758	–	85	80
C=CC(=O)N1CCN(c2nc(OC[C@@H]3CCCN3C)nc3c(Oc4c(Cl)c(F)cc5[nH]ncc45)nc(Cl)cc23)CC1 [Example 01G, 1-[4-(6-chloro-8-[(5-chloro-6-fluoro-1H-indazol-4-yl)oxy]-2-{[(2S)-1-methylpyrrolidin-2-yl]methoxy}pyrido[3,4-d]pyrimidin-4-yl)piperazin-1-yl]prop-2-en-1-one]	0.04	82	0.06	–	–	–
C=CC(=O)N1CCN(c2nc(OC[C@@H]3CCCN3C)nc3c(Oc4c(Cl)ccc5[nH]ncc45)nc(Cl)cc23)CC1 [Example 09G, 1-[4-(6-chloro-8-[(5-chloro-1H-indazol-4-yl)oxy]-2-{[(2S)-1-methylpyrrolidin-2-yl]methoxy}pyrido[3,4-d]pyrimidin-4-yl)piperazin-1-yl]prop-2-en-1-one]	0.069	81	0.123	–	–	–
C=CC(=O)N1CCN(c2nc(OC[C@H]3CN(C)C[C@@H]3OC)nc3c(Oc4c(Cl)c(F)cc5[nH]ncc45)nc(Cl)cc23)CC1 [Example 18G, 1-[4-(6-chloro-8-[(5-chloro-6-fluoro-1H-indazol-4-yl)oxy]-2-{[(3R,4R)-4-methoxy-1-methylpyrrolidin-3-yl]methoxy}pyrido[3,4-d]pyrimidin-4-yl)piperazin-1-yl]prop-2-en-1-one]	0.034	81	0.087	43	88	84
C=CC(=O)N1CCN(c2nc(OC[C@@H]3CCCN3C)nc3c(Oc4c(Cl)c(F)cc5[nH]ncc45)nccc23)CC1 [Example 01H, 1-[4-(8-[(5-chloro-6-fluoro-1H-indazol-4-yl)oxy]-2-{[(2S)-1-methylpyrrolidin-2-yl]methoxy}pyrido[3,4-d]pyrimidin-4-yl)piperazin-1-yl]prop-2-en-1-one]	0.117	81	0.191	–	66	–
C=CC(=O)N1CCN(c2nc(O[C@H]3CN(C)C[C@@H]3OC)nc3c(Oc4c(Cl)c(F)cc5[nH]ncc45)nccc23)CC1 [Example 11I, 1-[4-(8-[(5-chloro-6-fluoro-1H-indazol-4-yl)oxy]-2-{[(3S,4S)-4-methoxy-1-methyl-pyrrolidin-3-yl]oxy}pyrido [3,4-d]pyrimidin-4-yl)piperazin-1-yl]prop-2-en-1-one]	0.321	–	–	–	32	–
C=CC(=O)N1CCN(c2ncnc3c(Oc4c(Cl)c(F)cc5[nH]ncc45)nc(N)cc23)CC1 [Example 41A, 1-(4-{6-amino-8-[(5-chloro-6-fluoro-1H-indazol-4-yl)oxy]pyrido[3,4-d]pyrimidin-4-yl}piperazin-1-yl)prop-2-en-1-one]	3.5	31	–	–	–	–
C=CC(=O)N1CCN(c2nc(O[C@@H]3CN(C)C[C@H]3OC)nc3c(Oc4c(Cl)c(F)cc5[nH]ncc45)nccc23)[C@@H](C)C1 [Example 33I, 1-[(3S)-4-(8-[(5-chloro-6-fluoro-1H-indazol-4-yl)oxy]-2-{[(3R,4R)-4-methoxy-1-methyl-pyrrolidin-3-yl]oxy}pyrido [3,4-d]pyrimidin-4-yl)-3-methyl-piperazin-1-yl]prop-2-en-1-one]	0.039	–	–	74	–	–
C=CC(=O)N1CCN(c2nc(O[C@H]3Cc4nccn4C3)nc3c(Oc4c(C)ccc5[nH]ncc45)cccc23)CC1 [Example 08F, 1-(4-{2-[(6S)-6,7-dihydro-5H-pyrrolo[1,2-a]imidazol-6-yloxy]-8-[(5-methyl-1H-indazol-4-yl)oxy]quinazolin-4-yl}piperazin-1-yl)prop-2-en-1-one]	1.6	58	–	–	–	72
C#CCCN1C[C@@H](OC)[C@H](Oc2nc(N3CCN(C(=O)C=C)CC3)c3ccnc(Oc4c(Cl)c(F)cc5[nH]ncc45)c3n2)C1 [Example 44I, 1-[4-(2-{[(3R,4R)-1-(but-3-yn-1-yl)-4-methoxy-pyrrolidin-3-yl]oxy}-8-[(5-chloro-6-fluoro-1H-indazol-4-yl)oxy]pyrido [3,4-d]pyrimidin-4-yl)piperazin-1-yl]prop-2-en-1-one]	0.032	–	–	56	–	–
C=CC(=O)N1CCN(c2nc(OCc3cccnc3)nc3c(Oc4c(Cl)c(F)cc5[nH]ncc45)nccc23)CC1 [Example 07H, 1-(4-{8-[(5-chloro-6-fluoro-1H-indazol-4-yl)oxy]-2-(pyridin-3-ylmethoxy)pyrido[3,4-d]pyrimidin-4-yl}piperazin-1-yl)prop-2-en-1-one]	0.285	77	–	–	66	–
